# How the values were obtained:
# [1] = target: T1, human mTOR (His-tagged mTOR (1362C)) (Homo sapiens, UniProt P42345); experiment: mTOR kinase activity inhibition assay; type: biochemical; conditions: HTRF, read-out: IC50 against mTOR
# T1 construct: the 1362 to 2549 amino acid portion on the C terminus side of human mTOR; His tag (N); made in house
# Procedure, shortened: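 Crude His-tagged mTOR (aa 1362–2549) from stable HEK293 cells, with 8 μg/ml biotinylated peptide in 50 mM HEPES pH 7.5, 20 mM MnCl2; compound diluted in 20 μM ATP solution, reaction 3 h at room temperature. Phospho-peptide detected by HTRF (anti-phospho-S6K Thr389 cryptate/streptavidin-XL665, overnight at 4°C), 665/620 nm ratio. IC50 derived from curve fit of % inhibition.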
# [2] = tested on: human endometrial cancer cell strain AN3CA; experiment: Cell growth inhibition test (MTT), AN3CA; type: cell-based; conditions: AN3-CA, 72 h, 3 days culture, read-out: concentration exhibiting anti-cell effect (GI50)
# Procedure, shortened: (§1)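 Living cells were counted by MTT reduction (4 h; formazan dissolved in DMSO, A540) after 3-day compound exposure at 37° C, 5% CO2. Seeding was 5000 (AN3CA), 1000 (IGROV1) or 5000 (HT29) cells/well, dosing the following day. Growth rate T/C % used pre-dose baseline; GI50 interpolated at 50%.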
# [3] = tested on: human ovary cancer cell strain IGROV1; experiment: Cell growth inhibition test (MTT), IGROV1; type: cell-based; conditions: IGROV-1, 72 h, IGROV1, 3 days culture, read-out: concentration exhibiting anti-cell effect (GI50)
# Procedure, shortened: as §1
# [4] = tested on: human colon cancer cell strain HT29; experiment: Cell growth inhibition test (MTT), HT29; type: cell-based; conditions: HT-29, 72 h, HT29, 3 days culture, read-out: concentration exhibiting anti-cell effect (GI50)
# Procedure, shortened: as §1
# T1 sequence (P42345 1362-2549): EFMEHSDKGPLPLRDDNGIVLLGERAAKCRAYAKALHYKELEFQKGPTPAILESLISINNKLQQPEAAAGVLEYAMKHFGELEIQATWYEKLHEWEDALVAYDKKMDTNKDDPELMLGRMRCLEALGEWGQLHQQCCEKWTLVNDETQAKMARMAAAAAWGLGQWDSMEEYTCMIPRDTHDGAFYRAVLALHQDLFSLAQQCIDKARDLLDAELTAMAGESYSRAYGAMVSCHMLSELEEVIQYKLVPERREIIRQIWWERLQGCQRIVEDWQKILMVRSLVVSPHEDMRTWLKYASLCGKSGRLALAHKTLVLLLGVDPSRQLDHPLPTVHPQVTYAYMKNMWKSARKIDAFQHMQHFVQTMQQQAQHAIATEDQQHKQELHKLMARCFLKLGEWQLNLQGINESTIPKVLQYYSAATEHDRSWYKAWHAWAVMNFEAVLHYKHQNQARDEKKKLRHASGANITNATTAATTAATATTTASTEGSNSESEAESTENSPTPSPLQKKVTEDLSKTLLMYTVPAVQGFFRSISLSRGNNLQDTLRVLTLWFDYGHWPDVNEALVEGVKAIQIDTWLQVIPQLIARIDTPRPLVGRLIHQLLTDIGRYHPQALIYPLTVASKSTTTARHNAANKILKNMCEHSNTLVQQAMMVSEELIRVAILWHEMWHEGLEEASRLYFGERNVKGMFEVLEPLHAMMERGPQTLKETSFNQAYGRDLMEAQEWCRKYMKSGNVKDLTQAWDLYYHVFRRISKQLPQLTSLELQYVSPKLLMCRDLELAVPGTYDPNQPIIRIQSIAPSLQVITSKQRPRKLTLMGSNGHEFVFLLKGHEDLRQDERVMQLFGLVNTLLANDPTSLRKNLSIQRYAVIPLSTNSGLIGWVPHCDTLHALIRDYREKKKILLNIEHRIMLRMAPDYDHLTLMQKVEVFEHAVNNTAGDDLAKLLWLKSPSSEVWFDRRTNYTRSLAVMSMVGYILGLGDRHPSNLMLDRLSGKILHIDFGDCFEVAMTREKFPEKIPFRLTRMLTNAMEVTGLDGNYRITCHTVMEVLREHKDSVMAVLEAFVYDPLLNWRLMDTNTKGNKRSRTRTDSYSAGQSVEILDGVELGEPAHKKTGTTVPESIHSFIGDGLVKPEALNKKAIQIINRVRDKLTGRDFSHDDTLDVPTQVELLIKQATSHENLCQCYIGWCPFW
IC50 [1],GI50 [2],GI50 [3],GI50 [4],SMILES
< 0.01 µM,≤ 5 µM,≤ 5 µM,≤ 5 µM,"CS(=O)(=O)N1CCN(c2nc3c(N4CCOCC4)nc(-c4cnc(N)nc4)nc3n2CC(F)(F)F)CC1 [Example 8, 5-{8-[4-(Methylsulfonyl)piperazin-1-yl]-6-morpholin-4-yl-9-(2,2,2-trifluoroethyl)-9H-purin-2-yl}pyrimidin-2-amine]"
< 0.01 µM,≤ 5 µM,≤ 5 µM,≤ 5 µM,"CS(=O)(=O)N1CCN(c2nc3c(N4CCOCC4)nc(-c4cnc(N)nc4)nc3n2CC(F)F)CC1 [Example 64, 5-{9-(2,2-Difluoro-ethyl)-8-[4-(methylsulfonyl)piperazin-1-yl]-6-morpholin-4-yl-9H-purin-2-yl}pyrimidin-2-amine]"
0.01 to 0.03 µM,≤ 5 µM,≤ 5 µM,≤ 5 µM,"CC(=O)N1CCN(c2nc3c(N4CCOCC4)nc(-c4cnc(N)nc4)nc3n2CC(F)(F)F)CC12CC2 [Example 119, 5-[8-(4-Acetyl-4,7-diazaspiro[2.5]oct-7-yl)-6-morpholin-4-yl-9-(2,2,2-trifluoroethyl)-9H-purin-2-yl]pyrimidin-2-amine]"

# — patent US8309546B2, “Morpholinopurine derivatives” (Daiichi Sankyo Company, Limited, priority 2008, dated 2012)
